The source of these data is patent publication US20080051420A1, “New Compounds 317” (AstraZeneca AB, priority 2006, published 2008).

The target of the assay is T1, human β-secretase (Homo sapiens, UniProt P56817).
T1 construct: The soluble part of the human β-secretase (AA 1-AA 460) was cloned; made in house
T1 sequence (P56817 22-460): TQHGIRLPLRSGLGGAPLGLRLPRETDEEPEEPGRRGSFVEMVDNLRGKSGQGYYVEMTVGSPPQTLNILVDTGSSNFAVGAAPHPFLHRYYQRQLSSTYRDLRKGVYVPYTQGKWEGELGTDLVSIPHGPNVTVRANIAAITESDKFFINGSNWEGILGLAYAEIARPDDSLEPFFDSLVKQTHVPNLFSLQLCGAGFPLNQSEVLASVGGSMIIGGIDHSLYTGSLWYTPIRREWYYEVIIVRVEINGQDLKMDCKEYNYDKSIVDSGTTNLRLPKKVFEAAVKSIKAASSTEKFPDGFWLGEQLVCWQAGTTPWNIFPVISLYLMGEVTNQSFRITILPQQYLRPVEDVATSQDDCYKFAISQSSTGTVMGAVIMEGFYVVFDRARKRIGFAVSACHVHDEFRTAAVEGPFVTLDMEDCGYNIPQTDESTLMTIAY
As to the kind of experiment: TR-FRET assay (β-secretase enzyme, sBACE-Fc). It counts as biochemical. As to conditions: read-out: IC50 in TR-FRET assay. As for the experimental part:
The enzyme used in the IGEN Cleavage-, Fluorescent-, TR-FRET- and BiaCore assays is described as follows:
The soluble part of the human β-secretase (AA 1-AA 460) was cloned into the ASP2-F10-1-IRES-GFP-neoK mammalian expression vector. The gene was fused to the Fc domain of IgG1 (affinity tag) and stably cloned into HEK 293 cells. Purified sBACE-Fc is stored in Tris buffer, pH 9.2 and has a purity of 95%.
Enzyme was diluted to 6 μg/mL and the substrate (Europium)[…](Qsy7) to 200 nM in reaction buffer (NaAcetate, chaps, triton x-100, EDTA pH 4.5). Compounds were diluted to the desired concentration in dimethyl sulfoxide (final dimethyl sulfoxide concentration in assay is 5%). […] Enzyme (9 μL) and 1 μL of compound in dimethyl sulfoxide was added to the plate, mixed and pre-incubated for 10 min. Substrate (10 μL) was added and the reaction proceeded in the dark for 15 min at RT. The reaction was stopped with the addition of 7 μL NaAcetate, pH 9. […] The dimethyl sulfoxide control defined the 100% activity level and 0% activity was defined by exclusion of the enzyme (using reaction buffer instead).
A general note: In TR-FRET formats the signal depends on donor and acceptor labels being close together.
For the compound `CS(=O)(=O)Oc1ccc(C2(c3cccc(-c4cccnc4)c3)N=C(N)N3CCN=C32)cc1` (stereo not shown) [Example 77, 4-[5-Amino-7-(3-pyridin-3-ylphenyl)-2,7-dihydro-3H-imidazo[1,5-a]imidazol-7-yl]phenyl methanesulfonate 0.5 acetate], the IC50 (usually the concentration needed to halve the response being measured) came out at 1.53 µM.

Consider `CS(=O)(=O)Oc1ccc(C2(c3cccc(-c4cccnc4F)c3)N=C(N)N3CCN=C32)cc1` (stereo not shown) [Example 78, 4-{5-Amino-7-[3-(2-fluoropyridin-3-yl)phenyl]-2,7-dihydro-3H-imidazo[1,5-a]imidazol-7-yl}phenyl methanesulfonate 0.5 acetate], for which the IC50 came to 0.844 µM.

Take `CS(=O)(=O)Oc1ccc(C2(c3cccc(-c4cc(Cl)cnc4F)c3)N=C(N)N3CCN=C32)cc1` (stereo not shown) [Example 79, 4-{5-Amino-7-[3-(5-chloro-2-fluoropyridin-3-yl)phenyl]-2,7-dihydro-3H-imidazo[1,5-a]imidazol-7-yl}phenyl methanesulfonate 0.5 acetate]: the IC50 was found to be 0.436 µM.

`COc1cccc(-c2cccc(C3(c4ccc(OS(=O)(=O)C(C)C)cc4)N=C(N)N4CCN=C43)c2)c1` (stereo not shown) [Example 80, 4-[5-Amino-7-(3′-methoxybiphenyl-3-yl)-2,7-dihydro-3H-imidazo[1,5-a]imidazol-7-yl]phenyl propane-2-sulfonate 0.5 acetate]: the IC50 was 1.38 µM.

As to `CC(C)S(=O)(=O)Oc1ccc(C2(c3cccc(-c4cc(Cl)cc(Cl)c4)c3)N=C(N)N3CCN=C32)cc1` (stereo not shown) [Example 81, 4-[5-Amino-7-(3′,5′-dichlorobiphenyl-3-yl)-2,7-dihydro-3H-imidazo[1,5-a]imidazol-7-yl]phenyl propane-2-sulfonate 0.5 acetate], the IC50 was determined as 0.417 µM.

For the compound `CC(C)S(=O)(=O)Oc1ccc(C2(c3cccc(-c4cccc(Cl)c4)c3)N=C(N)N3CCN=C32)cc1` (stereo not shown) [Example 82, 4-[5-Amino-7-(3′-chlorobiphenyl-3-yl)-2,7-dihydro-3H-imidazo[1,5-a]imidazol-7-yl]phenyl propane-2-sulfonate 0.5 acetate], the IC50 came to 0.484 µM.

For `CC(C)S(=O)(=O)Oc1ccc(C2(c3cccc(-c4cccnc4)c3)N=C(N)N3CCN=C32)cc1` (stereo not shown) [Example 83, 4-[5-Amino-7-(3-pyridin-3-ylphenyl)-2,7-dihydro-3H-imidazo[1,5-a]imidazol-7-yl]phenyl propane-2-sulfonate 0.75 acetate], the IC50 was 2.51 µM.

As to `CC(C)S(=O)(=O)Oc1ccc(C2(c3cccc(-c4cccnc4F)c3)N=C(N)N3CCN=C32)cc1` (stereo not shown) [Example 84, 4-{5-Amino-7-[3-(2-fluoropyridin-3-yl)phenyl]-2,7-dihydro-3H-imidazo[1,5-a]imidazol-7-yl}phenyl propane-2-sulfonate 0.75 acetate], the IC50 is 2.51 µM.

As for `COc1cncc(-c2cccc(C3(c4ccc(OS(=O)(=O)C(C)C)cc4)N=C(N)N4CCN=C43)c2)c1` (stereo not shown) [Example 85, 4-{5-Amino-7-[3-(5-methoxypyridin-3-yl)phenyl]-2,7-dihydro-3H-imidazo[1,5-a]imidazol-7-yl}phenyl propane-2-sulfonate 0.5 acetate], the IC50 is 1.03 µM.

In the case of `NC1=NC(c2ccc(OS(=O)(=O)C(F)(F)F)cc2)(c2cccc(-c3cccc(Cl)c3)c2)C2=NCCN12` (stereo not shown) [Example 90, 4-[5-Amino-7-(3′-chlorobiphenyl-3-yl)-2,7-dihydro-3H-imidazo[1,5-a]imidazol-7-yl]phenyl trifluoromethanesulfonate 0.75 acetate], the IC50 is 0.113 µM.

Regarding `NC1=NC(c2ccccc2)(c2cccc(Br)c2)C2=NCCCN12` (stereo not shown) [Example 98, 8-(3-Bromophenyl)-8-phenyl-2,3,4,8-tetrahydroimidazo[1,5-a]pyrimidin-6-amine], the IC50 came out at 0.727 µM.

As for `NC1=NC(c2cccc(Br)c2)(c2cccc(OS(=O)(=O)C(F)(F)F)c2)C2=NCCCN12` (stereo not shown) [Example 113, 3-[6-Amino-8-(3-bromophenyl)-2,3,4,8-tetrahydroimidazo[1,5-a]pyrimidin-8-yl]phenyl trifluoromethanesulfonate], the IC50 was determined as 1.2 µM.

Take `CS(=O)(=O)Oc1cccc(C2(c3cccc(-c4cc(C(F)(F)F)cc(C(F)(F)F)c4)c3)N=C(N)N3CCCN=C32)c1` (stereo not shown) [Example 114, 3-{6-Amino-8-[3′,5′-bis(trifluoromethyl)biphenyl-3-yl]-2,3,4,8-tetrahydroimidazo[1,5-a]pyrimidin-8-yl}phenyl methanesulfonate]: the IC50 was 0.246 µM.

For the compound `NC1=NC(c2cccc(OS(=O)(=O)C(F)(F)F)c2)(c2cccc(-c3cccc(Cl)c3)c2)C2=NCCCN12` (stereo not shown) [Example 115, 3-[6-Amino-8-(3′-chlorobiphenyl-3-yl)-2,3,4,8-tetrahydroimidazo[1,5-a]pyrimidin-8-yl]phenyl trifluoromethanesulfonate], the IC50 stood at 0.106 µM.

In the case of `CS(=O)(=O)Oc1cccc(C2(c3cccc(-c4cc(Cl)cc(Cl)c4)c3)N=C(N)N3CCCN=C32)c1` (stereo not shown) [Example 116, 3-[6-Amino-8-(3′,5′-dichlorobiphenyl-3-yl)-2,3,4,8-tetrahydroimidazo[1,5-a]pyrimidin-8-yl]phenyl methanesulfonate], the IC50 was determined as 0.285 µM.

On to `CS(=O)(=O)Oc1cccc(C2(c3cccc(-c4cccc(Cl)c4)c3)N=C(N)N3CCCN=C32)c1` (stereo not shown) [Example 117, 3-[6-Amino-8-(3′-chlorobiphenyl-3-yl)-2,3,4,8-tetrahydroimidazo[1,5-a]pyrimidin-8-yl]phenyl methanesulfonate], for which the IC50 was 0.252 µM.

In the case of `COc1cccc(-c2cccc(C3(c4cccc(OS(C)(=O)=O)c4)N=C(N)N4CCCN=C43)c2)c1` (stereo not shown) [Example 118, 3-[6-Amino-8-(3′-methoxybiphenyl-3-yl)-2,3,4,8-tetrahydroimidazo[1,5-a]pyrimidin-8-yl]phenyl methanesulfonate], the IC50 was found to be 0.645 µM.

As for `CS(=O)(=O)Oc1cccc(C2(c3cccc(-c4cccnc4)c3)N=C(N)N3CCCN=C32)c1` (stereo not shown) [Example 119, 3-[6-Amino-8-(3-pyridin-3-ylphenyl)-2,3,4,8-tetrahydroimidazo[1,5-a]pyrimidin-8-yl]phenyl methanesulfonate], the IC50 is 0.754 µM.

Take `CS(=O)(=O)Oc1cccc(C2(c3cccc(-c4cncnc4)c3)N=C(N)N3CCCN=C32)c1` (stereo not shown) [Example 120, 3-[6-Amino-8-(3-pyrimidin-5-ylphenyl)-2,3,4,8-tetrahydroimidazo[1,5-a]pyrimidin-8-yl]phenyl methanesulfonate]: the IC50 is 0.272 µM.

As to `CS(=O)(=O)Oc1cccc(C2(c3cccc(-c4cc(Cl)cnc4F)c3)N=C(N)N3CCCN=C32)c1` (stereo not shown) [Example 121, 3-{6-Amino-8-[3-(5-chloro-2-fluoropyridin-3-yl)phenyl]-2,3,4,8-tetrahydroimidazo[1,5-a]pyrimidin-8-yl}phenyl methanesulfonate], the 50% inhibitory concentration (IC50) is 0.893 µM.

For `Cc1cc(C)cc(-c2cccc(C3(c4cccc(OS(C)(=O)=O)c4)N=C(N)N4CCCN=C43)c2)c1` (stereo not shown) [Example 122, 3-[6-Amino-8-(3′,5′-dimethylbiphenyl-3-yl)-2,3,4,8-tetrahydroimidazo[1,5-a]pyrimidin-8-yl]phenyl methanesulfonate], the IC50 turned out to be 0.069 µM.

In the case of `CCCS(=O)(=O)Oc1cccc(C2(c3cccc(-c4cc(Cl)cc(Cl)c4)c3)N=C(N)N3CCCN=C32)c1` (stereo not shown) [Example 123, 3-[6-Amino-8-(3′,5′-dichlorobiphenyl-3-yl)-2,3,4,8-tetrahydroimidazo[1,5-a]pyrimidin-8-yl]phenyl propane-1-sulfonate], the IC50 stood at 0.106 µM.
